Data published in ChEMBL document CHEMBL4673406, “Discovery and Preclinical Evaluation of BMS-986242, a Potent, Selective Inhibitor of Indoleamine-2,3-dioxygenase 1” (ACS Med Chem Lett, 2021).

Columns and labels:
[1] = target: T1, Indoleamine 2,3-dioxygenase 1 (Homo sapiens, UniProt P14902); experiment: Inhibition of IDO1 in IFNgamma/LPS-stimulated human whole blood preincubated for 4 hrs followed by IFNgamma/LPS stimulation and incubated for 18 hrs by Rapid-fire mass spectrometry analysis; format: tissue-based
T1 sequence (P14902 whole entry): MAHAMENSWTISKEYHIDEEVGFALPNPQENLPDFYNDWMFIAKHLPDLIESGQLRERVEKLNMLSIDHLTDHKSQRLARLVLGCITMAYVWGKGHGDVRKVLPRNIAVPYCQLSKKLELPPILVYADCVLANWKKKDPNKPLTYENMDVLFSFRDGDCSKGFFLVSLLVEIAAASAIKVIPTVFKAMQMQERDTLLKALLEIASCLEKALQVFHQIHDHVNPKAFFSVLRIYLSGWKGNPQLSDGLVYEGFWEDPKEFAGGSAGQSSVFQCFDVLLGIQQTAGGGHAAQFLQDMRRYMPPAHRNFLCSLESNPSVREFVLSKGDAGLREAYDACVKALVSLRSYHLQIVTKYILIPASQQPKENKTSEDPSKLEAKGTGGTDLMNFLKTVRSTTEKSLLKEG

[2] = target: Indoleamine 2,3-dioxygenase 1 (Mus musculus, UniProt P28776); experiment: Inhibition of IDO1 in IFNgamma-stimulated mouse M109 cells preincubated for 2 hrs followed by IFNgamma stimulation and measured after 18 hrs by; format: cell-based
Indoleamine 2,3-dioxygenase 1 (Mus musculus, UniProt P28776), sequence (P28776 whole entry): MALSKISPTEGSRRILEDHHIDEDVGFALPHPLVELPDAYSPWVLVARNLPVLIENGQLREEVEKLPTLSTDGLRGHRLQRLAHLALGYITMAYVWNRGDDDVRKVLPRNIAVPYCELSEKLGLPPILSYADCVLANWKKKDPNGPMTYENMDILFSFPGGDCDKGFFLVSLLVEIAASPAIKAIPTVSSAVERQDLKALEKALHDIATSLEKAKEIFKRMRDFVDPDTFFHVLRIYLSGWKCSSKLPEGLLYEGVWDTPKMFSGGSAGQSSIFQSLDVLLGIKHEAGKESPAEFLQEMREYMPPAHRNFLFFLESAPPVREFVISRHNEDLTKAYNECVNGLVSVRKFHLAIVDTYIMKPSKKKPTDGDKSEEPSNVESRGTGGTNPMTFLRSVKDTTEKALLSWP

[3] = target: T1, Indoleamine 2,3-dioxygenase 1; experiment: Inhibition of IDO1 in IFNgamma-stimulated human HeLa cells preincubated for 2 hrs followed by IFNgamma stimulation and measured after 18 hrs by
in vitro [4] = details: mouse, liver microsomes
Description: Metabolic stability in mouse liver microsomes assessed as parent compound remaining at 0.5 uM measured after 10 mins

in vitro [5] = details: human, liver microsomes
Description: Metabolic stability in human liver microsomes assessed as parent compound remaining at 0.5 uM measured after 10 mins

[6] = AUC (0 to 24 hrs) in nu/nu mouse xenografted with human SK-OV-3 cells measured in tumor at 100 mg/kg, po bid by uHPLC-MS/MS analysis; format: ADME, organism-based; parameters: time < 24 hr, route oral, dose 100 mg/kg
[7] = Solubility of the compound at pH 6.5 to 7.4; format: physicochemical; details: buffer
[8] = target: Indoleamine 2,3-dioxygenase 1 (Mus musculus) (UniProt P28776); experiment: In vivo inhibition of IDO1 in nu/nu mouse xenografted with human SK-OV-3 cells assessed as reduction in kynurenine level at 60 mg/kg, po qd by HPLC-MS/MS analysis relative to control; format: functional, organism-based
Indoleamine 2,3-dioxygenase 1 (Mus musculus), sequence (P28776 whole entry, looked up): as the sequence (P28776 whole entry) above

in vivo = details: nu/nu, mouse, tumor, po, 60 mg/kg
Description: AUC (0 to 24 hrs) in nu/nu mouse xenografted with human SK-OV-3 cells measured in tumor at 60 mg/kg, po qd by uHPLC-MS/MS analysis

[9] = Aqueous solubility of the compound at pH 6.5; format: physicochemical; details: buffer

IC50 [1] [nM] | IC50 [2] [nM] | IC50 [3] [nM] | remaining at 10 min, 0.5 µM (in vitro [4]) [%] | remaining at 10 min, 0.5 µM (in vitro [5]) [%] | AUC at 24 h [6] [µM·h] | solubility [7] [µg/mL] | inhibition [8] [%] | AUC at 24 h (in vivo) [µM·h] | solubility [9] [µg/mL] | SMILES
135 | 215 | 12 | 7 | 21 | – | – | – | – | – | C[C@@H](NC(=O)c1ccccc1Cl)[C@H]1CC[C@@H](c2ccnc3ccc(F)cc32)CC1
– | – | – | – | – | 48 | – | – | – | – | NS(=O)(=O)NCCNc1nonc1C(=NO)Nc1ccc(F)c(Br)c1 [EPACADOSTAT]
579 | 56 | – | 10 | 9 | – | – | – | – | – | C[C@@H](NC(=O)C12CCC(Cl)(CC1)CC2)[C@H]1CC[C@@H](c2ccnc3ccc(F)cc32)CC1
280 | 67 | 20 | 14 | 52 | – | – | – | – | – | C[C@@H](NC(=O)Nc1ccc(Cl)cc1)[C@H]1CC[C@@H](c2ccnc3ccc(F)cc32)CC1
22 | 3 | 2 | 70 | 59 | – | < 1 | – | – | – | C[C@@H](NC(=O)c1ccc(-c2ccccc2)cc1)[C@H]1CC[C@@H](c2ccnc3ccc(F)cc32)CC1
44 | 62 | 7 | 80 | 80 | – | – | – | – | – | C[C@@H](CNc1ccc(Cl)cc1)[C@H]1CC[C@@H](c2ccnc3ccc(F)cc32)CC1
158 | 772 | 261 | 32 | 56 | – | – | – | – | – | C[C@@H](CNC(=O)c1ccc(Cl)cc1)[C@H]1CC[C@@H](c2ccnc3ccc(F)cc32)CC1
– | – | – | 31 | 84 | – | – | 61 | 34.9 | – | C[C@@H](C(=O)Nc1ccc(Cl)cc1)[C@H]1CC[C@@H](c2ccnc3ccc(F)cc32)CC1
97 | 48 | 7 | 9 | 39 | – | – | – | – | – | C[C@@H](NC(=O)c1cccc(Cl)c1)[C@H]1CC[C@@H](c2ccnc3ccc(F)cc32)CC1
28 | 12 | 4 | 12 | 48 | – | – | – | – | – | C[C@@H](c1nc2ccc(Cl)cc2[nH]1)[C@H]1CC[C@@H](c2ccnc3ccc(F)cc32)CC1
35 | 20 | 7 | 4 | 2 | – | – | – | – | < 1 | COc1ccc(C(=O)N[C@H](C)[C@H]2CC[C@@H](c3ccnc4ccc(F)cc43)CC2)cc1N1CCOCC1
294 | 86 | 12 | 5 | 6 | – | – | – | – | – | C[C@@H](NC(=O)C1CCCCC1)[C@H]1CC[C@@H](c2ccnc3ccc(F)cc32)CC1
484 | > 1000 | > 1000 | < 1 | 29 | – | – | – | – | – | C[C@@H](NS(=O)(=O)c1ccc(Cl)cc1)[C@H]1CC[C@@H](c2ccnc3ccc(F)cc32)CC1
80 | 92 | 10 | 51 | 73 | – | – | – | – | – | COc1ncc(NC(=O)[C@H](C)[C@H]2CC[C@@H](c3ccnc4ccc(F)cc43)CC2)cn1
470 | 287 | 18 | < 1 | < 1 | – | – | – | – | – | C[C@@H](C(=O)NC1CCCCC1)[C@H]1CC[C@@H](c2ccnc3ccc(F)cc32)CC1
> 1000 | 870 | 67 | 5 | 19 | – | – | – | – | – | C[C@H](NC(=O)[C@H](C)[C@H]1CC[C@@H](c2ccnc3ccc(F)cc32)CC1)c1ccc(Cl)cc1
779 | 651 | 125 | 2 | 8 | – | – | – | – | – | C[C@@H](NC(=O)Cc1ccc(Cl)cc1)[C@H]1CC[C@@H](c2ccnc3ccc(F)cc32)CC1
> 1000 | > 1000 | 745 | 2 | 34 | – | – | – | – | – | C[C@@H](NCc1ccc(Cl)cc1)[C@H]1CC[C@@H](c2ccnc3ccc(F)cc32)CC1
